Among the data in PubChem BioAssay (NCI) are TGI and GI50 values, retold here.

What all share (test): NCI tumour cell line growth inhibition, 48 h
Test [1] has as its system RXF-631 renal.
Test [2] has as its system SNB-78 CNS.
Test [3] has as its system DLD-1 colon.
Test [4] has as its system LXFL 529 NSCLC.
Test [5] has as its system XF 498 CNS.
Test [6] relates to M19-MEL melanoma.
The subject of test [7] is MDA-N.
For test [8], the system named is PC-3 prostate.
In test [9] the test system is BT-549 breast.
For test [10], the system named is P388 leukemia.
The test system of test [11] is P388/ADR leukemia.
For test [12], the system named is SN12K1 renal.

Values joined by “and” are separate entries in the source; they are usually repeats but may differ in a detail not shown here. Equal values may be shown once.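 Each compound was tested at five concentrations against cells in 96-well plates for 48 hours. The concentration for 50% growth inhibition is given as GI50. At the TGI there is no net growth.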

With `Cn1c2c(c3ccccc31)CCN(CCCCN1CCc3c(n(C)c4ccccc34)C1=O)C2`, the TGI in test [1], in [2], in [3], in test [4], in [5] and in test [6] was above 100 µM in each case.

As for `CC(=O)O/C=C(/C=C/OC(C)=O)C(C/C=C(\C)C#CC=C(C)C)OC(C)=O` (centres undefined), the TGI is above 100 µM in test [1]; 72.2 µM in test [2]; above 100 µM in test [3]; 37.1 µM in test [4]; above 100 µM in test [5]; 41.7 µM in [6].

In the case of `O=C(O)CSc1n[nH]c(-c2ccc(O)cc2)n1`, the TGI in [1], in test [2], in test [3], in test [5] and in test [6] was above 100 µM each time.

On to `Cc1cnc2c(C)ccc([N+](=O)[O-])c2c1NCCCN(C)C`, for which the TGI in test [2] and in test [6] was above 100 µM each time.

Take `O=C(O)c1c(-c2cccc3ccccc23)sc(-c2cccc3ccccc23)c1C(=O)O`: the TGI in [2], in test [3], in test [4], in test [5] and in [6] was above 100 µM throughout.

As to `CC1=C(C(=O)Nc2ccccc2C)C(c2ccccc2)C(C(=O)Nc2ccccc2C)=C(C)N1`, the TGI is 97.4 µM in test [2]; above 100 µM in test [3]; above 100 µM in test [4]; 83.2 µM in test [5]; above 100 µM in test [6].

For the compound `O=[N+]([O-])c1ccc(C(c2c[nH]c3ccccc23)c2c[nH]c3ccccc23)cc1`, the TGI in test [7] was found to be 27.5 µM; in test [8] it was 28.4 µM; in test [9] it was 14.3 µM.

Turning to `COc1cc(OC)c([C@@H]2OC(=O)C3C2C(=O)O[C@H]3c2cc(OC)c(OC)cc2OC)cc1OC` (some centres undefined), the TGI in [2], in test [3], in [4], in test [5] and in test [6] was above 100 µM in each case.

Take `COc1ccc2[nH]c3c(c2c1)CCN(C)CC3`: the TGI in [1], in [2], in test [3], in test [5] and in test [6] was above 100 µM throughout.

As to `Nc1nc(SCc2ccccn2)c2ncn(C3CCCC3)c2n1`, the TGI in test [7], in test [8] and in test [9] was above 100 µM in each case.

In the case of `COC(=O)C1CC2(CC3=C1CCCC3)OCCO2` (centres undefined), the TGI in test [1], in test [2], in [3], in test [4], in [5] and in test [6] was above 100 µM in each case.

As to `N#CCC1COc2ccccc2O1` (centres undefined), the TGI in [7], in test [8] and in test [9] was above 10 µM throughout.

In the case of `CCc1cccc(C(C)C)c1NC(=O)C(=O)C(Cc1nc2ccccc2[nH]c1=O)C(=O)OC` (centres undefined), the TGI in [3], in test [4], in [5] and in test [6] was above 100 µM in each case.

Take `CC(=O)n1c(COS(C)(=O)=O)nc2ccccc21`: the TGI in test [7], in [8] and in test [9] was above 100 µM each time.

With `CC1OC(OCC2OC(Oc3c(-c4ccc(O)cc4)oc4cc(O)cc(O)c4c3=O)C(OC3OCC(O)(CO)C3O)C(O)C2O)C(O)C(O)C1O` (centres undefined), the TGI in test [1] was above 100 µM; in test [2], above 100 µM; in test [3] it was above 100 µM; in test [4], above 100 µM; in test [6], 61.6 µM.

As to `COc1ccc(C(=O)/C(Br)=C/C(=O)O)cc1`, the GI50 in [7] is 47.4 µM; in test [8], 74.5 µM; in test [9], 242 µM. Moreover, the TGI is 209 µM and 153 µM in test [7]; 53.7 µM in test [10]; 159 µM and 257 µM in test [8]; 108 µM in test [11]; 22.6 µM in test [12]; 96.4 µM and 406 µM in test [9]. Also, the TGI in [3] stood at 73.5 µM; in [5], 16 µM; in test [6], 106 µM.

Regarding `N#CCC(=O)Nc1cccc(C(F)(F)F)c1`, the TGI in test [1], in [2], in test [3], in test [4], in test [5] and in [6] was above 100 µM throughout.

`COc1cccc2cc(C)c(C(=O)c3ccccc3)nc12`: the TGI in [1], in [2], in [3], in test [4], in test [5] and in test [6] was above 100 µM in each case.

For the compound `O=C1CC(O)C=C1Nc1ccc(Cl)cc1` (centres undefined), the TGI in test [1], in test [2], in [3], in test [4] and in [6] was above 100 µM in each case.

Regarding `CC(=O)C1CC(C)=CCC12C(=O)Nc1ccccc12` (centres undefined), the TGI in test [1], in test [3], in test [4] and in test [5] was above 100 µM throughout.
